This is an account of results in US20180099931A1 (AbbVie S.à.r.l., priority 2016, published 2018).

Like-named read-outs stand apart in the source and are kept apart here.

The target of this assay is T1, F508delCFTR (Homo sapiens, UniProt P13569, DEL508-508).
T1 construct: expressed in transfected cells; host or cells: CFBE41o- human lung-derived epithelial cells (CFBE4lo-F508delCFTR-HRP), doxycycline-inducible
In words: Cell Surface Expression-Horse Radish Peroxidase (CSE-HRP) Assay.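 For Maximum % activity (with co-corrector): co-corrector and positive control are both the same reference corrector at 2 µM.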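 For Maximum % activity (without co-corrector): percent of the 2 µM on-plate positive control corrector response above DMSO.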 The following applies: for Maximum % activity (with co-corrector): with co-corrector (2 μM); for Maximum % activity (with co-corrector) / Emax: maximum at any tested concentration, normalized to on-plate positive control; for Emax: without co-corrector, read-out: Maximum % activity (without co-corrector). The format is cell-based.

The mark [1] stands for this setting: test compound without co-corrector, read-out: EC50 (without co-corrector).
Where [2] appears, read: with co-corrector (2 μM of 3-[(2R,4R)-4-({[1-(2,2-difluoro-1,3-benzodioxol-5-yl)cyclopropyl]carbonyl}amino)-7-methoxy-3,4-dihydro-2H-chromen-2-yl]benzoic acid), read-out: EC50 (with co-corrector).

T1 sequence (P13569 with tags, fused parts or gaps DEL508-508): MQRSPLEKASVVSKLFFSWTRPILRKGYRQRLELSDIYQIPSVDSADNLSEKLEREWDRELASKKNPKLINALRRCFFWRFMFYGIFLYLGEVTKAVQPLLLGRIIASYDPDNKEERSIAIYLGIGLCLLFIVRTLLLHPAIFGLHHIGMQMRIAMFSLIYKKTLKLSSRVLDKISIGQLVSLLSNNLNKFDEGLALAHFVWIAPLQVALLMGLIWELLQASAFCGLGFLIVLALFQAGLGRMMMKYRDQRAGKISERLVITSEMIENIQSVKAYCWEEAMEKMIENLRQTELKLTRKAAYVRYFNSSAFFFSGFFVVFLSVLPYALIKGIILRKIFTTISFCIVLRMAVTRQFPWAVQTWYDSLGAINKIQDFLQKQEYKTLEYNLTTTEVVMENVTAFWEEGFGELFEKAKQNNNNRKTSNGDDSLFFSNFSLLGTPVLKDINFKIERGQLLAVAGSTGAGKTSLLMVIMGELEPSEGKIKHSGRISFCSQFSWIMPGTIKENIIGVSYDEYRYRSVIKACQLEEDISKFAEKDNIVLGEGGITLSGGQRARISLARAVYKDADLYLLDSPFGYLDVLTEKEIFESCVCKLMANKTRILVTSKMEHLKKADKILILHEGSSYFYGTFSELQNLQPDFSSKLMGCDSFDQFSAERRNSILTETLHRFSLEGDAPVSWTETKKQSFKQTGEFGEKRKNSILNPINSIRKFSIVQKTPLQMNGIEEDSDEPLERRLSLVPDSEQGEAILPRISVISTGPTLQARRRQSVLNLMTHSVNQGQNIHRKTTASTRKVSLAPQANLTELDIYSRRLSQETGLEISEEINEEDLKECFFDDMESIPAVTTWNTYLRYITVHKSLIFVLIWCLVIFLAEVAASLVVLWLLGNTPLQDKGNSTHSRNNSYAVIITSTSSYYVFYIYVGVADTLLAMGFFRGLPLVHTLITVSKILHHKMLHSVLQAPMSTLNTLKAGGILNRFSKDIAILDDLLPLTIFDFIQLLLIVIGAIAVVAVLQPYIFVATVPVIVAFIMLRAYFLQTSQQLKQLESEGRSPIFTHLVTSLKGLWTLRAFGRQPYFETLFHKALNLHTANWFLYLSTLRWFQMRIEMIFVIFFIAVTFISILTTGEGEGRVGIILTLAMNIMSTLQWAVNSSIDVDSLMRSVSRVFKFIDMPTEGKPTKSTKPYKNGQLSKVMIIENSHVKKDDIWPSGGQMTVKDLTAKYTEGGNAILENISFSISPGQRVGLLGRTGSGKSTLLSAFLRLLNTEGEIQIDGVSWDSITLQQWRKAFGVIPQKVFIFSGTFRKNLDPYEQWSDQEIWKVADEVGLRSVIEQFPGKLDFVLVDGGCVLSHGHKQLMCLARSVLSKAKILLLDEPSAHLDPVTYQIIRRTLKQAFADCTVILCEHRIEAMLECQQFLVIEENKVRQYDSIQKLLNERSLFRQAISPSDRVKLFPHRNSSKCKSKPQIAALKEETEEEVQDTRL

In general, EC50 refers to the concentration that produces a half-maximal response. As to `COc1ncc(C(C)(C)C)cc1N[C@H]1[C@H](C(C)(C)C)[C@@H](C(=O)O)N(C(=O)C2CCCCC2)[C@H]1c1ccccc1` [Example 55, (2S,3S,4S,5S)-3-tert-butyl-4-[(5-tert-butyl-2-methoxypyridin-3-yl)amino]-1-(cyclohexanecarbonyl)-5-phenylpyrrolidine-2-carboxylic acid], the “Maximum % activity (with co-corrector)” value is “++ (≥150 and <350)”; the Emax was less than 100%. The EC50 under setting [1] is 1000 to 10000 nM. Further, under setting [2], the EC50 lay within 1000 to 10000 nM.
On to `COc1ccc(C(F)(F)F)cc1CN[C@H]1[C@H](C23CC(C2)C3)[C@@H](C(=O)O)N(C(=O)C2CCCCC2)[C@H]1c1ccccc1` [Example 56], for which the “Maximum % activity (with co-corrector)” value was “+++ (≥350)” and the Emax was 100 to 200%. The concentration giving a half-maximal response (EC50) under setting [1] is 1000 to 10000 nM. The EC50 under setting [2] is less than 1000 nM.
For the compound `COc1ncc(C(F)(F)F)cc1CN[C@H]1[C@H](C23CC(C2)C3)[C@@H](C(=O)O)N(C(=O)C2CCCCC2)[C@H]1c1ccccc1` [Example 57, (2S,3S,4S,5S)-3-(bicyclo[1.1.1.1]pentan-1-yl)-1-(cyclohexanecarbonyl)-4-({[2-methoxy-5-(trifluoromethyl)pyridin-3-yl]methyl}amino)-5-phenylpyrrolidine-2-carboxylic acid], the “Maximum % activity (with co-corrector)” value was “+++ (≥350)” and the Emax was in the range of 100 to 200%. Besides, under setting [1], the EC50 was less than 1000 nM. The EC50 under setting [2] was less than 1000 nM.
Turning to `COc1ccc(C(C)(C)C)cc1CN[C@H]1[C@H](C(C)(C)C)[C@@H](C(=O)NS(C)(=O)=O)N(C(=O)C2CCCCC2)[C@H]1c1ccccc1` [Example 58, (2S,3S,4S,5S)-3-tert-butyl-4-{[(5-tert-butyl-2-methoxyphenyl)methyl]amino}-1-(cyclohexanecarbonyl)-N-(methanesulfonyl)-5-phenylpyrrolidine-2-carboxamide], the “Maximum % activity (with co-corrector)” value was “++ (≥150 and <350)”; the Emax is less than 100%. Under setting [1], the EC50 lay within 1000 to 10000 nM. Moreover, the EC50 under setting [2] lay within 1000 to 10000 nM.
Consider `COc1ccc(C(C)(C)C)cc1CN[C@H]1[C@H](C(C)(C)C)[C@@H](C(=O)O)N(C(=O)[C@@H]2CCCCO2)[C@H]1c1ccccc1OC(F)F` [Example 59, (2S,3S,4S,5S)-3-tert-butyl-4-{[(5-tert-butyl-2-methoxyphenyl)methyl]amino}-5-[2-(difluoromethoxy)phenyl]-1-[(2S)-oxane-2-carbonyl]pyrrolidine-2-carboxylic acid], for which the “Maximum % activity (with co-corrector)” value is given as “+++ (≥350)” and the Emax was greater than 200%. In addition, the EC50 under setting [1] was in the range of 1000 to 10000 nM. Also, the EC50 under setting [2] was less than 1000 nM.
As for `COc1ccc(C2(C)CCC2)cc1CN[C@H]1[C@H](C(C)(C)C)[C@@H](C(=O)O)N(C(=O)[C@@H]2CCCCO2)[C@H]1c1cccnc1N(C)C` [Example 60, (2S,3S,4S,5S)-3-tert-butyl-5-[2-(dimethylamino)pyridin-3-yl]-4-({[2-methoxy-5-(1-methylcyclobutyl)phenyl]methyl}amino)-1-[(2S)-oxane-2-carbonyl]pyrrolidine-2-carboxylic acid], the “Maximum % activity (with co-corrector)” value was “+++ (≥350)” and the Emax was greater than 200%. Also, under setting [1], the EC50 was in the range of 1000 to 10000 nM. The EC50 under setting [2] was in the range of 1000 to 10000 nM.
`COc1ccc(C(C)(C)C)cc1CN[C@H]1[C@H](C(C)(C)C)[C@@H](C(=O)O)N(C(=O)OC(C)C)[C@H]1c1ccccc1C(C)C` [Example 61, (2S,3S,4S,5S)-3-tert-butyl-4-{[(5-tert-butyl-2-methoxyphenyl)methyl]amino}-1-{[(propan-2-yl)oxy]carbonyl}-5-[2-(propan-2-yl)phenyl]pyrrolidine-2-carboxylic acid]: the “Maximum % activity (with co-corrector)” value is on record as “+++ (≥350)” and the Emax is greater than 200%. Besides, under setting [1], the concentration giving a half-maximal response (EC50) was less than 1000 nM. Also, the EC50 under setting [2] was less than 1000 nM.
In the case of `CC(C)(C)[C@H]1[C@H](NCC2(c3cccc(Cl)c3)CCOCC2)[C@H](c2ccccc2)N(C(=O)C2CCCCC2)[C@@H]1C(=O)O` [Example 63, (2S,3S,4S,5S)-3-tert-butyl-4-({[4-(3-chlorophenyl)oxan-4-yl]methyl}amino)-1-(cyclohexanecarbonyl)-5-phenylpyrrolidine-2-carboxylic acid], the “Maximum % activity (with co-corrector)” value was “+++ (≥350)” and the Emax was less than 100%. In addition, the half-maximal effective concentration (EC50) under setting [1] lay within 1000 to 10000 nM. Moreover, the EC50 under setting [2] is 1000 to 10000 nM.
For the compound `COc1ccc(C23CC(C2)C3)cc1CN[C@H]1[C@H](C(C)(C)C)[C@@H](C(=O)O)N(C(=O)OC(C)C)[C@H]1c1cccnc1N(C)C` [Example 64, (2S,3S,4S,5S)-4-({[5-(bicyclo[1.1.1]pentan-1-yl)-2-methoxyphenyl]methyl}amino)-3-tert-butyl-5-[2-(dimethylamino)pyridin-3-yl]-1-{[(propan-2-yl)oxy]carbonyl}pyrrolidine-2-carboxylic acid], the “Maximum % activity (with co-corrector)” value was “+++ (≥350)” and the Emax is greater than 200%. Moreover, the EC50 under setting [1] was 1000 to 10000 nM. Further, the EC50 under setting [2] lay within 1000 to 10000 nM.
In the case of `COc1cc(C(F)(F)F)ccc1CN[C@H]1[C@H](C(C)(C)C)[C@@H](C(=O)O)N(C(=O)C2C3CCCC32)[C@H]1c1ccccc1` (stereo partly drawn) [Example 65, (2S,3S,4S,5S)-1-(bicyclo[3.1.0]hexane-6-carbonyl)-3-tert-butyl-4-({[2-methoxy-4-(trifluoromethyl)phenyl]methyl}amino)-5-phenylpyrrolidine-2-carboxylic acid], the “Maximum % activity (with co-corrector)” value was “+++ (≥350)” and the Emax lay in the range of 100 to 200%. The EC50 under setting [1] lay within 1000 to 10000 nM. For the same compound, the EC50 under setting [2] fell in the range of 1000 to 10000 nM.
For `COc1ccc(C(C)(C)C)cc1CN[C@H]1[C@H](C(C)(C)C)[C@@H](C(=O)O)N(C(=O)OC(C)C)[C@H]1c1cccnc1N(C)C` [Example 66, (2S,3S,4S,5S)-3-tert-butyl-4-{[(5-tert-butyl-2-methoxyphenyl)methyl]amino}-5-[2-(dimethylamino)pyridin-3-yl]-1-{[(propan-2-yl)oxy]carbonyl}pyrrolidine-2-carboxylic acid], the “Maximum % activity (with co-corrector)” value is given as “+++ (≥350)” and the Emax fell in the range of 100 to 200%. Also, the EC50 under setting [1] lay in the range of 1000 to 10000 nM. Moreover, under setting [2], the EC50 lay in the range of 1000 to 10000 nM.
Take `COc1ccc(C23CC(C2)C3)cc1CN[C@H]1[C@H](C(C)(C)C)[C@@H](C(=O)O)N(C(=O)[C@@H]2CCCC(F)(F)C2)[C@H]1c1ccccc1` [Example 67, (2S,3S,4S,5S)-4-({[5-(bicyclo[1.1.1]pentan-1-yl)-2-methoxyphenyl]methyl}amino)-3-tert-butyl-1-[(1R)-3,3-difluorocyclohexane-1-carbonyl]-5-phenylpyrrolidine-2-carboxylic acid]: the “Maximum % activity (with co-corrector)” value is “+++ (≥350)” and the Emax was greater than 200%. Under setting [1], the EC50 was less than 1000 nM. The EC50 under setting [2] was less than 1000 nM.
As to `COc1ncc(C2CCC2)cc1CN[C@H]1[C@H](C(C)(C)C)[C@@H](C(=O)O)N(C(=O)OC(C)C)[C@H]1c1ccccc1C(C)C` [Example 68, (2S,3S,4S,5S)-3-tert-butyl-4-{[(5-cyclobutyl-2-methoxypyridin-3-yl)methyl]amino}-1-{[(propan-2-yl)oxy]carbonyl}-5-[2-(propan-2-yl)phenyl]pyrrolidine-2-carboxylic acid], the “Maximum % activity (with co-corrector)” value is “+++ (≥350)” and the Emax is greater than 200%. For the same compound, the EC50 under setting [1] was in the range of 1000 to 10000 nM. Moreover, under setting [2], the EC50 was less than 1000 nM.
